{"source": "patent US12338266B2", "about": "(GENETIC S.P.A., priority 2019, dated 2025)", "key": {"glucocorticoid receptor": {"target": "T1, glucocorticoid receptor (Homo sapiens, UniProt P04150)", "T1 sequence (P04150 1-777)": "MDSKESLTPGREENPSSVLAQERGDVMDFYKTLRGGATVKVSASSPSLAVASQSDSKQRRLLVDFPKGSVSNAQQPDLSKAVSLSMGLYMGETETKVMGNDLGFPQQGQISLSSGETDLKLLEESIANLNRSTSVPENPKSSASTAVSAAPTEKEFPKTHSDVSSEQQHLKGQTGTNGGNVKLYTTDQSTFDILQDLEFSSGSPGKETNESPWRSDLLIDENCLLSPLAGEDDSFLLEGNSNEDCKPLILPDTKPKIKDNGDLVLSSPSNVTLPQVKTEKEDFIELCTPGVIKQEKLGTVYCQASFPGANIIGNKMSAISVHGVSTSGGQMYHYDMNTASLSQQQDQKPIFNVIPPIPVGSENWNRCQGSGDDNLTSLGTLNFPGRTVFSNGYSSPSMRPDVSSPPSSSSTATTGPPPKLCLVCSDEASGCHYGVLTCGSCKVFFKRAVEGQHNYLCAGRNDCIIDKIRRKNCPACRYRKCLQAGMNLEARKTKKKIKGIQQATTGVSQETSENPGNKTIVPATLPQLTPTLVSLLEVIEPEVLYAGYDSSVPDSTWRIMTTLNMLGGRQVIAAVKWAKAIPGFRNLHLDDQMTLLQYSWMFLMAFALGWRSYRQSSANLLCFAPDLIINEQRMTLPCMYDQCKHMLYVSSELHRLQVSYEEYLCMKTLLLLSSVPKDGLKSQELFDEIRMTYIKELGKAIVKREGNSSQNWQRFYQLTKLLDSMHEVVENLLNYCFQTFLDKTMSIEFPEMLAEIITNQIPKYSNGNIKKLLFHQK", "conditions": "higher than the parent compound; cited from earlier work"}, "[1]": {"conditions": "10 mg orally once daily at bedtime; cited from earlier work"}, "[2]": {"test_system": "mice with OVA-induced allergic asthma", "test": "Lung hyperreactivity / Penh by whole body plethysmography (Protocol-2)", "format": "in vivo, Balb/c mice", "conditions": "for basal Penh measurement (non-challenged with methacholine): FIG. 9B", "experimental": "(§1) Male Balb/c SPF mice (26*2 g, 6 week-old) were purchased from the animal house facilities at the Faculty of Medicine (University of Sāo Paulo, Brazil). They were group-housed in a temperature-controlled room at 22° C. with a 12/12-hour light/dark cycle and allowed free access to food and water. The study is in agreement with the Ethical Principles for Animal Research established by the Brazilian College for Animal Experimentation (COBEA). According to the internal laboratory rules, euthanasia will be performed if severe distress related to the test agents developed during the experiment. Mice were sensitized with two subcutaneous injections of 0.2 ml of OVA/Al(OH)3, with an interval of 7 days (Sham animals received the Al(OH)3 suspension in PBS with no OVA). Chicken egg-white ovalbumin (OVA; grade V, cat. A5503, Sigma Chemical Co., St. Louis, Mo.) was dissolved in sterile phosphate buffered saline (PBS) solution (50 μg/ml) and Al(OH)3 was added (at 8 mg/ml). This mix was used to induce the allergic sensitization of the animals by subcutaneous injection. OVA was dissolved at 1% in sterile PBS solution and this solution was nebulized (as the immunological challenges). Seven days after the second sensitization (i.e., 3rd week), the animals were nebulized twice a week with the 1% OVA solution (Sham and untreated OVA groups were nebulized with PBS) during 20 minutes for the next 4 weeks. Thirty minutes before the challenges (OVA nebulization) and daily during the next 4 weeks, mice were intra-nasally treated (10 μl/animal as 5 μl/nostril) with the respective compounds/vehicle. […] Animals were killed at selected time points by overdose of enflurane and BAL and blood collected.\nAirway responsiveness in conscious, spontaneously breathing animals was measured at the end of the 6th week (i.e., after 4 weeks OVA challenges+treatments), 24 h after the last OVA/PBS challenge via whole body plethysmography (Buxco Europe Ltd, Winchester, UK). Experiments were carried out in a quiet room by an investigator who was unaware of the nature of treatments. Aerosolized saline (50 μl/mouse during 60 s) and then the muscarinic agonist metacholine (MCh) at increasing concentrations (3.12, 6.25, 12.5 and 25.0 mg/ml in PBS) was nebulized through an inlet of the main chamber for 3 min each to induce bronchoconstriction and readings were taken and averaged for 6 min following each nebulization. After 20 min. the baseline values usually returned at the end of this period. Enhanced pause (Penh) was measured as an indicator of bronchoconstriction and consequent increase of airway resistance as: Penh=[(expiration time/relaxation time)−1][…]."}, "[3]": {"test_system": "mice with OVA-induced allergic asthma", "test": "Total and differential leukocyte counts in BAL fluid (Protocol-2)", "format": "in vivo, Balb/c mice", "conditions": "4 weeks; for BAL eosinophils (OVA-induced increase): 100 nmol/animal/day intranasal, FIG. 10", "experimental": "as §1\nAfter Penh evaluation, the mice were anesthetized with inhaled isofluorane (5% v/v in O2) and blood samples were collected from the descending abdominal aorta. The mice were then euthanized by exsanguination and bronchoalveolar lavage (BAL) was performed by exposing and cannulating the trachea with a polyethylene tube (1 mm outer diameter) connected to a syringe. The lungs were washed by flushing 300 μL of heparin-containing PBS solution (20 UI/mL). The retrieved BAL lavage aliquots were obtained and the same procedure was repeated four additional times. The samples were centrifuged (1000 g for 10 min) and the cell pellet was resuspended in 200 μL of PBS solution, Total cell counts were determined using a Neubauer chamber, and differential counting was carried out in cytospin (Fanem Mod 2400; Sāo Paulo, Brazil) preparations stained with May-Grünwald dye. Leukocytes were classified based on morphological criteria."}, "[4]": {"test_system": "mice with OVA-induced allergic asthma", "test": "Plasma IgE levels by ELISA in OVA-sensitized mice (Protocol-1)", "format": "in vivo, Balb/c mice", "conditions": "1 mg/kg i.p.; FIG. 6C, 7C", "experimental": "Balb/c mice (8-9 weeks old, Charles River, Calco, Italy) were housed in the animal care facility at the Department of Pharmacy of the University of Naples. Italy in a controlled environment (temperature 21±2° C. and humidity 60±10%) and provided with standard rodent chow and water. All animals were allowed to acclimate for four days prior to experiments and were subjected to 12 h light-12 h dark schedule. Each mouse was assigned an identity number and randomtzed to different groups so that all experiments were carried out in a blinded manner. The experimental procedures were approved by the Italian Ministry according to International and National law and policies (EU Directive 2010/63/EU and Italian DL 26/2014 for animal experiments, ARRIVE guidelines and the Basel declaration including the 3R concept). Animal studies are reported in compliance with the ARRIVE guidelines. Balb/c mice is the most widely mouse strain used to study asthma-like features in vivo and to investigate the undedying molecular and cellular mechanisms of allergen sensitization. Mice were treated subcutaneously (s.c.) with 0.4 mL (100 μg) of ovalbumin (OVA) complexed with alum (13 mg mL^−1) (OVA group) at day 0 and 7. Chicken egg-white ovalbumin (OVA: grade V. cat. A5503, Sigma Chemical Co., St. Louis, MO) was dissolved in sterile phosphate buffered saline (PBS) solution (250 μg/1 ml) and Al(OH)3 was added (at 13 mg/ml). This mix was used to induce the allergic sensitization of the animals by subcutaneous injection. OVA was dissolved at 3% in sterile PBS solution and this solution was nebulized (as the immunological challenges). At day 21 mice were exposed to OVA challenge for three days and then sacrificed. This experimental procedure induces in the mice an increase in plasma IgE levels and this effect is by itself sufficient to induce a significant increase in bronchial hyper-responsiveness and pulmonary inflammation, typical hallmarks of asthma. A group of animals was treated s.c. with saline (vehicle group). […] Animals were killed at selected time points by overdose of enflurane and bronchi and blood collected.\nBlood was collected by intracardiac puncture using citrate as anticoagulant. Plasma was obtained by centrifugation at 800×g at 4′C for 10 minutes and immediately frozen at −80° C. Total IgE levels were measured by means of ELISA using matched antibody pairs (BD Biosciences Pharmingen San Jose, Calif.)."}, "[5]": {"conditions": "in vivo; cited from earlier work"}, "[6]": {"conditions": "intranasal administration at recommended doses; cited from earlier work"}}, "note": "Entries after “also recorded” stand apart in the source; their conditions may differ.", "data": [{"smiles": "C[C@]12C=CC(=O)C=C1CC[C@@H]1[C@@H]2[C@@H](O)C[C@@]2(C)[C@H]1C[C@H]1O[C@@H](C3CCCCC3)O[C@]12C(=O)CO", "note": "[Des-ciclesonide, C21-desisobutyryl-ciclesonide]", "values": [{"measurement": "affinity for the glucocorticoid receptor relative to the parent compound (ciclesonide)", "setting": "glucocorticoid receptor", "result": 120, "unit": "times"}]}, {"smiles": "CC(C)(O)c1ccccc1CC[C@@H](SCC1(CC(=O)[O-])CC1)c1cccc(/C=C/c2ccc3ccc(Cl)cc3n2)c1.[Na+]", "note": "[Montelukast sodium, (R,E)-2-(1-((1-(3-(2-(7-chloroquinolin-2-yl)vinyl)phenyl)-3-(2-(2-hydroxypropan-2-yl)phenyl)propylthio)-methyl)cyclopropyl)acetic acid monosodium salt]", "values": [{"measurement": "variables of asthma control (FEV1, daytime and night time symptom scores, as-needed β-agonist use)", "setting": "[1]", "result": "improvement in variables of asthma control"}]}, {"smiles": "CC(C)C(=O)OCC(=O)[C@@]12O[C@H](C3CCCCC3)O[C@@H]1C[C@H]1[C@@H]3CCC4=CC(=O)C=C[C@]4(C)[C@H]3[C@@H](O)C[C@@]12C", "note": "[ciclesonide, (11β,16α)-16,17-[[(R)-cyclohexylmethylene]bis(oxy)]-11-hydroxy-21-(2-methyl-1-oxopropoxy)pregna-1,4-diene-3,20-dione]", "values": [{"measurement": "airway responsiveness, Penh (basal, methacholine Emax and AUC)", "setting": "[2]; 100 nmol/day/animal intranasal, daily for 4 weeks, FIG. 8A-D", "result": "Significant reduction of this response; also recorded: significantly reduced"}, {"measurement": "BAL eosinophils (OVA-induced increase)", "setting": "[3]", "result": "significantly reduced"}, {"measurement": "BAL eosinophils (OVA-induced increase)", "setting": "[3]; listed as Ciclesonide", "result": "significantly reduced this increase"}, {"measurement": "allergen induced plasma IgE increase", "setting": "[4]", "result": "significantly inhibited allergen induced IgE increase"}, {"measurement": "cortisol suppression", "setting": "[5]", "result": "comparable with placebo"}, {"measurement": "serum concentrations of ciclesonide", "setting": "[6]", "result": "negligible serum concentrations"}]}, {"smiles": "CC(C)(O)c1ccccc1CC[C@@H](SCC1(CC(=O)O)CC1)c1cccc(/C=C/c2ccc3ccc(Cl)cc3n2)c1", "note": "[montelukast, (R,E)-2-(1-((1-(3-(2-(7-chloroquinolin-2-yl)vinyl)phenyl)-3-(2-(2-hydroxypropan-2-yl)phenyl)propylthio)-methyl)cyclopropyl)acetic acid]", "values": [{"measurement": "basal Penh measurement (non-challenged with methacholine)", "setting": "[2]; 10 nmol/animal/day intranasal, daily for 4 weeks", "result": "significantly reduced the basal Penh measurement"}, {"measurement": "basal Penh measurement (non-challenged with methacholine)", "setting": "[2]; 10 nmol/animal/day intranasal, daily for 4 weeks, listed as Montelukast", "result": "slightly decrease the basal (non-challenged with methacholine) response"}, {"measurement": "Penh parameters following methacholine challenge (Emax, AUC)", "setting": "[2]; 10 nmol/animal/day intranasal, FIG. 9C-D", "result": "did not affect the parameters measured following methacholine challenge"}, {"measurement": "direct effects on lung function", "setting": "[2]; 10 nmol/day/animal intranasal", "result": "negligible direct effects on lung function"}, {"measurement": "BAL eosinophils / eosinophil recruitment to the lungs", "setting": "[3]; 10 nmol/animal/day intranasal, FIG. 11", "result": "significantly reduced; also recorded: significant inhibitory effects on eosinophil recruitment to the lungs"}, {"measurement": "allergen induced plasma IgE increase", "setting": "[4]", "result": "did not affect IgE"}]}]}
